What was measured:
[1] = system: Bel-7402; experiment: Cytotoxicity against human Bel7402 cells after 72 hrs by SRB assay; type: functional, cell-based; details: Bel-7402, 72 h
[2] = Cytotoxicity against human WI38 cells after 72 hrs by SRB assay; type: cell-based; details: WI-38, 72 h
[3] = system: Calu-3; experiment: Cytotoxicity against human Calu3 cells after 72 hrs by SRB assay; type: functional, cell-based; details: Calu-3, 72 h
[4] = system: NCI-H460; experiment: Cytotoxicity against human NCI-H460 cells after 72 hrs by SRB assay; type: functional, cell-based; details: NCI-H460, 72 h
[5] = system: SGC-7901; experiment: Cytotoxicity against human SGC7901 cells after 72 hrs by SRB assay; type: functional, cell-based; details: SGC-7901, 72 h
[6] = system: HT-29; experiment: cells; details: Homo sapiens, HT-29, 72 h
Description: Cytotoxicity against human HT-29 cells after 72 hrs by SRB assay

[7] = system: SK-BR-3; experiment: Cytotoxicity against human SKBR3 cells after 72 hrs by SRB assay; type: functional, cell-based; details: SK-BR-3, 72 h

Question: For `Cc1ncc(-c2ccc(N)cc2)c(-c2ccccc2O)n1`, which IC50 [1] is on record?
Answer: Its IC50 is over 10 µM.

Question: What about the IC50 [2] of the same molecule?
Answer: Its IC50 is over 10 µM.

Question: Which results are given for `Cc1ncc(-c2ccccc2F)c(-c2ccccc2O)n1`?
Answer: IC50 [1]: > 10 µM; IC50 [2]: > 10 µM

Question: For `Cc1ncc(-c2ccc(OC(F)(F)F)cc2)c(-c2ccccc2O)n1`, which IC50 [1] is on record?
Answer: The IC50 was over 10 µM.

Question: And the IC50 [2]?
Answer: The IC50 was over 10 µM.

Question: Which results are given for `Nc1ncc(-c2ccc(OCCCOCc3ccccc3)cc2)c(-c2ccccc2O)n1`?
Answer: IC50 [1]: > 10 µM; IC50 [2]: > 10 µM

Question: Which results are given for `Nc1ncc(-c2ccc(OC(F)(F)F)cc2)c(-c2ccccc2O)n1`?
Answer: IC50 [1]: > 10 µM; IC50 [2]: > 10 µM

Question: With `Nc1ncc(-c2ccc(O)cc2)c(-c2ccccc2O)n1` as the molecule, how does the IC50 [1] read?
Answer: The IC50 was over 10 µM.

Question: What about the IC50 [2] of the same molecule?
Answer: Its IC50 is over 10 µM.

Question: For `COC(=O)c1ncc(-c2ccc(OC)cc2)c(-c2ccccc2O)n1`, which IC50 [1] is on record?
Answer: Its IC50 is over 10 µM.

Question: What about the IC50 [2] of the same molecule?
Answer: Its IC50 is over 10 µM.

Question: What does the source list for `CNC(=O)c1ncc(-c2ccc(OC)cc2)c(-c2ccccc2O)n1`?
Answer: IC50 [1]: > 10 µM; IC50 [2]: > 10 µM

Question: Which results are given for `Cc1ncc(-c2cccc(C(F)(F)F)c2)c(-c2ccccc2O)n1`?
Answer: IC50 [1]: > 10 µM; IC50 [2]: > 10 µM

Question: Which IC50 [1] does the source give for `Cc1ncc(-c2ccc(Cl)cc2)c(-c2ccccc2O)n1` here?
Answer: Its IC50 is over 10 µM.

Question: And the IC50 [2]?
Answer: The IC50 was over 10 µM.

Question: Which IC50 [1] does the source give for `Cc1ncc(-c2ccc(NC(=O)OC(C)(C)C)cc2)c(-c2ccccc2O)n1` here?
Answer: Its IC50 is over 10 µM.

Question: And the IC50 [2]?
Answer: The IC50 was over 10 µM.

Question: For `COc1cc(-c2cnc(C)nc2-c2ccccc2O)cc(OC)c1OC`, which IC50 [1] is on record?
Answer: Its IC50 is over 10 µM.

Question: What about the IC50 [2] of the same molecule?
Answer: The IC50 was over 10 µM.

Question: Which results are given for `Nc1ncc(-c2ccccc2F)c(-c2ccccc2O)n1`?
Answer: IC50 [1]: > 10 µM; IC50 [2]: > 10 µM

Question: Which results are given for `COc1cc(-c2cnc(N)nc2-c2ccccc2O)cc(OC)c1OC`?
Answer: IC50 [1]: > 10 µM; IC50 [2]: > 10 µM

Question: Which results are given for `Nc1ncc(-c2cccc(C(F)(F)F)c2)c(-c2ccccc2O)n1`?
Answer: IC50 [1]: > 10 µM; IC50 [2]: > 10 µM

Question: For `Nc1ncc(-c2ccc(OCCN3CCCC3)cc2)c(-c2ccccc2O)n1`, which IC50 [1] is on record?
Answer: Its IC50 is over 10 µM.

Question: And the IC50 [2]?
Answer: Its IC50 is over 10 µM.

Question: Which results are given for `CC(=O)O[C@@]12CO[C@@H]1C[C@H](O)[C@@]1(C)C(=O)[C@H](O)C3=C(C)[C@@H](OC(=O)[C@H](O)[C@@H](NC(=O)OC(C)(C)C)c4ccccc4)C[C@@](O)([C@@H](OC(=O)c4ccccc4)[C@H]21)C3(C)C` [DOCETAXEL]?
Answer: IC50 [2]: > 10 µM; IC50 [3]: 0.1 µM; IC50 [4]: 0.0097 µM; IC50 [5]: 0.0084 µM

Question: For `COc1cccc2c1C(=O)c1c(O)c3c(c(O)c1C2=O)C[C@@](O)(C(=O)CO)C[C@@H]3O[C@H]1C[C@H](N)[C@H](O)[C@H](C)O1` [DOXORUBICIN], which IC50 [1] is on record?
Answer: Its IC50 is 0.021 µM.

Question: And the IC50 [2]?
Answer: Its IC50 is over 10 µM.

Question: And the IC50 [6]?
Answer: The IC50 was 0.018 µM.

Question: With `CS(=O)(=O)CCNCc1ccc(-c2ccc3ncnc(Nc4ccc(OCc5cccc(F)c5)c(Cl)c4)c3c2)o1` [LAPATINIB] as the molecule, how does the IC50 [2] read?
Answer: The IC50 was over 10 µM.

Question: And the IC50 [7]?
Answer: Its IC50 is 0.017 µM.

Source: ChEMBL document CHEMBL1139298, “Synthesis and biological evaluation of novel 2,4,5-substituted pyrimidine derivatives for anticancer activity” (Bioorg Med Chem Lett, 2009)
